Results reported in patent publication US11938218B2, “High density peptide polymers” (The Regents of the University of California, priority 2014, dated 2024).
Ends that are not written are not given here. * marks the point of attachment. NorAha = N-(hexanoic acid)-cis-5-norbornene-exo-dicarboximide, O=C1[C@@H]2[C@H](C(=O)N1CCCCCC(=O)*)[C@H]1C=C[C@@H]2C1; fluorescein = 5(6)-carboxyfluorescein

Columns and labels:
[1] = test system: trypsin, chymotrypsin and Pronase; test: RP-HPLC analysis of CPP proteolysis (intact material after protease treatment); format: in vitro ADME; details: 1 μM protease, 20 min
Experimental: The extent of proteolytic degradation of the Tat peptide, polymer and particle by trypsin (Gibco Life Tech., cat. #15090-046), a-chymotrypsin (Fisher Scientific, cat. #ICN1522722) and Pronase (Roche, cat. #10165921001) was assessed by comparison of chromatograms in RP-HPLC. I n these experiments, the material at the indicated concentration was incubated with each protease (at 1 μM) for 20 min, and then the enzymes were heat denatured at 65° C. for 15 min, and the solution was immediately injected onto an analytical RP-HPLC. […] Note that the standard curves for the polymer and particle will be biased due to the fact that after cleavage, the polymer backbone and fluorophore should remain intact, and will comprise part of the measured peak area.
Tat-containing materials, at the same concentration used in flow cytometery and confocal microscopy studies described above (2.5 M), were challenged for 20 min with various proteases at high enzyme concentration (˜1 M) prior to determining the extent of proteolytic cleavage and residual bioactivity. Such activity was assayed by three separate methods: reverse-phase high-performance liquid chromatography (RP-HPLC), flow cytometry, and confocal microscopy. […] The bioactivity of enzymatically digested materials was then assessed in cellular assays by both flow cytometry and confocal microscopy.

chymotrypsin = chymotrypsin (Bos taurus, UniProt P00766); test: Time course of chymotrypsin treatment assayed by RP-HPLC; details: after 20 minutes of incubation with chymotrypsin (1 μM)
HeLa cells [2] = test: Cellular uptake in HeLa cells by flow cytometry (Tat, Arg8, guanidinium materials and controls); format: cell-based; details: 30 min incubation, DMEM with 10% FBS
HeLa cells [3] = test: CellTiter-Blue cell viability assay, 72 hrs; details: for LD50: data fit to the Hill equation
Experimental: The cytotoxicity of materials was assessed using the CellTiter-Blue® assay (Promega, cat #G8081), which measures the metabolic reduction of resazurin to resorufin via fluorescence. For these studies, HeLa cells were plated at a density of 3,500 cells per well of a 96-well plate 18 hrs prior to treatment. Materials dissolved in DPBS at 10× the desired concentrations were added to the wells along with a 10% DMSO positive control. Cells were incubated for 72 hrs at 37° C. Note that concentration for all toxicity measurements is with respect to peptide concentration to ensure that all peptides and polymers are fairly compared with respect to their therapeutic components. […] The medium was removed and 80 μL of fresh medium lacking phenol red was added. To this was added 20 μL of the CellTiter-Blue® reagent and the cells were then incubated for 2 hrs prior to measuring fluorescence using 560 nm excitation and 590 nm emission. The fluorescence measurements were corrected for background fluorescence from the CellTiter-Blue® reagent by subtracting the fluorescence reading of wells treated with the reagent in the absence of cells. Fluorescence values were then referenced as a percentage of the value obtained for the DPBS vehicle control.

HeLa cells [4] = test: Cellular uptake in HeLa cells by flow cytometry (GSGSG-derived and KLA polymers); format: cell-based; details: 2.5 μM with respect to fluorophore, 30 min
Experimental: HeLa cells were plated at a density of 90,000 cells per well of a 24-well plate 18 hrs prior to treatment with the material of interest. Materials dissolved in Dulbecco's Phosphate Buffered Saline (DPBS without Ca2+ or Mg2+; Corning Cellgro, cat. #21-031-CM) at 10× the desired concentration (where concentration is with respect to fluorophore concentration to ensure propare comparison of each molecular transporter) were added to the wells and the plates were incubated for 30 min at 37° C. The medium was then removed and the cells were washed 2× with DPBS and then incubated 3× for five minutes each with heparin (0.5 mg/mL in DPBS; Affymetrix, cat. #16920) to remove any membrane-bound, non-internalized material, and finally rinsed again with DPBS. The cells were then trypsinized (0.25% trypsin in DPBS; Gibco Life Tech., cat. #15090-046) for 10 min, cold medium was added, and the cells were transferred to Eppendorfs. The suspended cells were centrifuged to pellets and then resuspended in a minimal amount of cold DPBS. Flow cytometry data (10,000 events on three separate cultures) was then acquired.

HeLa cells [5] = test: Pharmacological and thermal probes of cellular uptake mechanisms by flow cytometry; format: cell-based; details: dynasore 80 μM, MβCD 9.5 mM, 4° C.
Experimental: HeLa cells were plated at a density of 90,000 cells per well of a 24-well plate 18 h prior to treatment. Materials dissolved in Dulbecco's Phosphate Buffered Saline (DPBS without Ca^2+ or Mg^2+; Corning Cellgro, cat. #21-031-CM) at 10× the desired concentration were added to the wells, and the plates were incubated for 30 min at 37° C. The medium was then removed, and the cells were washed twice with DPBS and then incubated three times for 5 min with heparin (0.5 mg/mL in DPBS; Affymetrix, cat. #16920), and finally rinsed again with DPBS. The cells were then trypsinized (0.25% trypsin; Gibco Life Tech., cat. #15090-046) for 10 min, cold medium was added, and the cells were transferred to Eppendorfs, centrifuged to pellets and then resuspended in a minimal amount of cold DPBS. Fluorescence activated cell sorting data (10000 events on three separate cultures) was acquired on an Accuri C6 flow cytometer set to default “3 blue 1 red” configuration with standard optics and slow fluidics (14 μL/min). […] The cells were then incubated, prepared and analyzed by flow cytometry as described above. […] Data is reported as the normalized mean fluorescence, which are the mean fluorescence yielded by the material/the mean fluorescence from the vehicle control. […]

HeLa cells [6] = test: Live-cell confocal microscopy (GSGSG-derived and KLA polymers); format: cell-based; details: 2.5 μM with respect to fluorophore
[7] = test system: CC(C)C[C@H](NC(=O)[C@H](Cc1c[nH]cn1)NC(=O)[C@H](C)NC(=O)[C@@H]1CCCN1C(=O)[C@H](CCCNC(=N)N)NC(=O)[C@H](CCC(=O)NCCNc1cccc2c(S(=O)(=O)O)cccc12)NC(=O)CN1C(=O)[C@@H]2[C@H](C1=O)[C@H]1C=C[C@@H]2C1)C(=O)N[C@@H](CCCNC(=N)N)C(=O)N[C@@H](CC(=O)O)C(=O)N[C@@H](CO)C(=O)NCC(=O)N[C@@H](CCCCNC(=O)c1ccc(N=Nc2ccc(N(C)C)cc2)cc1)C(=O)NCC(=O)N[C@@H](CO)C(=O)NCC(=O)N[C@@H](CO)C(=O)NCC(N)=O; test: purified protein, by the assay type; details: other: Michaelis-Menten plot, cleavage by MT1-MMP; pH 7.4
[8] = 72 hrs, concentration with respect to peptide

N=C(N)NCCC[C@H](NC(=O)[C@H](CCCNC(=N)N)NC(=O)[C@H](CCCNC(=N)N)NC(=O)[C@H](CCC(N)=O)NC(=O)[C@H](CCCNC(=N)N)NC(=O)[C@H](CCCNC(=N)N)NC(=O)[C@H](CCCCN)NC(=O)[C@H](CCCCN)NC(=O)[C@H](CCCNC(=N)N)NC(=O)CNC(=O)[C@H](Cc1ccc(O)cc1)NC(=O)[C@@H](N)CCCCNC(=O)c1ccc2c(c1)C(=O)OC21c2ccc(O)cc2Oc2cc(O)ccc21)C(N)=O [Tat peptide]
proteolysis by RP-HPLC after protease treatment (in words) [1]: complete consumption | material remaining, of the starting concentration (chymotrypsin): less than 10%

Arg8 polymer: fluorescein end-labeled ROMP homopolymer of NorAha-Arg8 monomer, DP 8, deprotected (NorAha-RRRRRRRR-NH2; also: ROMP homopolymer, DP 8, fluorescein end label on polymer)
cellular uptake by flow cytometry (in words) (HeLa cells [2]): responses similar to those of the guanidinium polymer

GSGSG56-b-OEG28 [GSGSG, m ~60]
cytotoxicity (in words) (HeLa cells [3]; at concentrations up to 1 mM): No cytotoxicity

GSGSGKK61-b-OEG30 [GSGSGKK, m ~60]
cytotoxicity (in words) (HeLa cells [3]; at concentrations up to 1 mM): No cytotoxicity

GSGSGR71-b-OEG26 (also: ROMP block copolymer, Arg block DP 71, OEG block DP 26) [GSGSGR, m ~60]
cellular uptake by flow cytometry (in words) (HeLa cells [4]): better intracellular penetration

GSGSGRR57-b-OEG13 (not fully specified; also: ROMP polymer backbone, 57 repeats of peptide, OEG block, 13 units) [GSGSGRR, m ~60]
cellular uptake by flow cytometry (in words) (HeLa cells [4]): better intracellular penetration | cytotoxicity (in words) (HeLa cells [3]; at concentrations up to 1 mM): No cytotoxicity

K(5/6-Flu)RRRRRRRR-NH2 (K(fluorescein)RRRRRRRR-NH2) [Arg8 peptide, fluorescein-labeled canonical cell penetrating peptide Arg8]
effect of pharmacological and thermal inhibition on flow cytometry readings (HeLa cells [5]): only a small effect

KLA6 [KLA full length, m ~5]
LD50 (HeLa cells [3]; [8]): 12.5 µM

KLA11 [KLA full length, m ~10]
LD50 (HeLa cells [3]; [8]): 25 µM

KLA14 [KLA full length, m ~15]
LD50 (HeLa cells [3]; [8]): 30 µM

KLA(fragment)11 (KLAKLAK; also: ROMP polymer, 11 repeats) [KLA fragment, m ~10]
cellular uptake by flow cytometry (in words) (HeLa cells [4]): ability to enter cells | internalization and localization by live-cell confocal microscopy (in words) (HeLa cells [6]): a mixture of diffuse and punctate fluorescence | cytotoxicity (in words) (HeLa cells [3]; [8]): negligible toxicity

KLAKLAKKLAKLAK (KLAKLAKKLAKLAK-NH2; also: fluorescein-lysine, position not given here) [KLA peptide, reference compound]
cellular uptake by flow cytometry (in words) (HeLa cells [4]): indistinguishable from that of the vehicle control | cytotoxicity (in words) (HeLa cells [3]; [8]): no cytotoxicity was detected

MT1-MMP (Homo sapiens)
Km [7]: 11 µM | kcat/Km [7]: 8670 M⁻¹ s⁻¹

R52-b-OEG20 [R control, m ~60]
internalization and localization by live-cell confocal microscopy (in words) (HeLa cells [6]): a mixture of diffuse and punctate fluorescence
